Laboratory results reported in patent US20150291625A1 (PFIZER INC., priority 2012, published 2015).
Where “and” joins values, the source holds several entries; their conditions need not be identical. Equal values may be shown once. Where a name gives a salt, the structure may show the parent alone. Read-outs that look alike come from different tables or passages of the source.

Tests used:
D1 [1] = molecular target: T1, D1 (Homo sapiens, UniProt P21728); assay: D1 cAMP HTRF assay (HEK293T/hD1#1 stable cell line); format: cell-based; set-up: expressed in transfected cells
In short: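 Cells from a stable human D1 HEK293T line in PBS/0.5 μM IBMX were incubated with compound for 30 min at room temperature, and cAMP was then detected by competitive HTRF (1 h, room temperature). A cAMP standard curve converted ratios to cAMP, giving ratio-based and cAMP-based EC50 values.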

D1 [2] = molecular target: T1, D1; assay: Human D1 receptor binding assay ([3H]-SCH23390 competition)
Procedure: D1 binding assays were performed using over-expressing LTK human cell lines. […] These ligand and tissue concentrations were used in time course studies to determine linearity and equilibrium conditions for binding. Binding was at equilibrium with the specified amount of tissue in 30 minutes at 37° C. […] The pellet was resuspended in assay buffer (50 mM Tris (pH 7.4@ RT) containing 4 mM MgSO4 and 0.5 mM EDTA). […] After a 30 minute incubation period at 37° C., assay samples were rapidly filtered through Unifilter-96 GF/B PEI-coated filter plates and rinsed with 50 mM Tris buffer (pH 7.4 at 4° C.). […] Ki values were calculated according to the Cheng-Prusoff equation.

[3] = Human D1 Receptor Binding, Ki (nM), Geometric mean of 2-4 determinations, a: >=5 determinations, d: single determination

T1 sequence (P21728 whole entry): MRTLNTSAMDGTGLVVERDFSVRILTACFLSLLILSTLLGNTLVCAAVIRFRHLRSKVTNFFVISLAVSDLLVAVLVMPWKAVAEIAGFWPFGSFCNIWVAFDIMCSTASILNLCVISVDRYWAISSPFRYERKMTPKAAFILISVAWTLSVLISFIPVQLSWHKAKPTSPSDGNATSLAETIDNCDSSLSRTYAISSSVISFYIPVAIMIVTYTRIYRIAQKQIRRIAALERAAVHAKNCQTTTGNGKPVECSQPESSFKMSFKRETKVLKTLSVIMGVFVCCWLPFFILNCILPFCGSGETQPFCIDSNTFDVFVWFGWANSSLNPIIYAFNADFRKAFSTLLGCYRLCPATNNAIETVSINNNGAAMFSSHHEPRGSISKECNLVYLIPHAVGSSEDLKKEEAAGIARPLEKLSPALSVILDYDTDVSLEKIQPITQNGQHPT

| Compound | EC50 (D1 [1]) | Ki (D1 [2]; [3]) [nM] | Ki (D1 [2]; read-out: Human D1 Receptor Binding, Ki (nM), Geometric mean of 2-4 determinations, a: >=5 determinations, d: single determination) [nM] |
| --- | --- | --- | --- |
| COc1cc(Oc2nccc3occc23)ccc1-c1cccc(=O)n1C [Example 166, 6-[4-(furo[3,2-c]pyridin-4-yloxy)-2-methoxyphenyl]-1-methylpyridin-2(1H)-one] | 310 nM | 22.9 |  |
| COc1ccc2cnccc2c1-c1ccc(Oc2nccc3occc23)cc1 [Example 168, 5-[4-(furo[3,2-c]pyridin-4-yloxy)phenyl]-6-methoxyisoquinoline, trifluoroacetate salt] | 458 nM | 28.6 |  |
| COc1cc(Oc2nccc3occc23)ccc1-c1c(C)cnnc1C [Example 169, 4-[4-(3,5-dimethylpyridazin-4-yl)-3-methoxyphenoxy]furo[3,2-c]pyridine] | 150 nM | 29.2 |  |
| COc1cnnc(C)c1-c1ccc(Oc2nccc3occc23)cc1C [Example 171, 4-[4-(5-methoxy-3-methylpyridazin-4-yl)-3-methylphenoxy]furo[3,2-c]pyridine] | 487 nM | 31.1 |  |
| Cc1cc(Oc2nccc3occc23)ccc1-c1cccc2nccn12 [Example 174, 4-[4-(imidazo[1,2-a]pyridin-5-yl)-3-methylphenoxy]furo[3,2-c]pyridine] | 200 nM |  | 37.9 |
| Cc1cc(Oc2nccc3occc23)ccc1-c1c(C)ncnc1N1Cc2cncnc2C1 [Example 175, 6-{5-[4-(furo[3,2-c]pyridin-4-yloxy)-2-methylphenyl]-6-methylpyrimidin-4-yl}-6,7-dihydro-5H-pyrrolo[3,4-d]pyrimidine, formate salt] | 475 nM | 41.4 |  |
| Cc1cc(Oc2nccc3occc23)ccc1-c1c(C)ncnc1N1CCC(CO)C1 (stereo not shown) [Example 179, (1-{5-[4-(furo[3,2-c]pyridin-4-yloxy)-2-methylphenyl]-6-methylpyrimidin-4-yl}pyrrolidin-3-yl)methanol, formate salt] | 921 nM | 47.2 |  |
| Cc1cc(Oc2nccc3occc23)ccc1-c1c(C)ncnc1N1CCC[C@H]1CO [Example 180, [(2S)-1-{5-[4-(furo[3,2-c]pyridin-4-yloxy)-2-methylphenyl]-6-methylpyrimidin-4-yl}pyrrolidin-2-yl]methanol, formate salt] | 812 nM | 52.9 |  |
| COc1cc(Oc2nccc3occc23)ccc1-c1cccnc1C [Example 181, 4-[3-methoxy-4-(2-methylpyridin-3-yl)phenoxy]furo[3,2-c]pyridine] | 803 nM | 53.1 |  |
| CCCc1noc(COc2cc(Oc3nccc4occc34)ccc2-c2nccnc2C)n1 [Example 182, 4-{4-(3-methylpyrazin-2-yl)-3-[(3-propyl-1,2,4-oxadiazol-5-yl)methoxy]phenoxy}furo[3,2-c]pyridine, formate salt] | 641 nM | 58 |  |
| Cc1ncccc1-c1ccc(Oc2nccc3occc23)cc1 [Example 184, 4-[4-(2-methylpyridin-3-yl)phenoxy]furo[3,2-c]pyridine] | 881 nM | 63.3 |  |
| Cc1cc(Oc2nccc3occc23)ccc1-c1c(C)ncnc1N1CC[C@@H](F)C1 [Example 185, 4-(4-{4-[(3R)-3-fluoropyrrolidin-1-yl]-6-methylpyrimidin-5-yl}-3-methylphenoxy)furo[3,2-c]pyridine, trifluoroacetate salt] | 1160 nM | 64.2 |  |
| Cc1noc(C)c1COc1cc(Oc2nccc3occc23)ccc1-c1cccc2nccn12 [Example 186, 4-{3-[(3,5-dimethyl-1,2-oxazol-4-yl)methoxy]-4-(imidazo[1,2-a]pyridin-5-yl)phenoxy}furo[3,2-c]pyridine, trifluoroacetate salt] | 1020 nM | 64.6 |  |
| COCCOc1cc(Oc2nccc3occc23)ccc1-c1c(C)ncnc1C [Example 190, 4-[4-(4,6-dimethylpyrimidin-5-yl)-3-(2-methoxyethoxy)phenoxy]furo[3,2-c]pyridine] | 2650 nM | 79.3 |  |
| Cc1ncc(N)nc1-c1ccc(Oc2nccc3occc23)cc1Cl [Example 193, 6-[2-chloro-4-(furo[3,2-c]pyridin-4-yloxy)phenyl]-5-methylpyrazin-2-amine] | 944 nM | 87.5 |  |
| Cc1nccnc1-c1ccc(Oc2nccc3occc23)cc1Cl [Example 196, 4-[3-chloro-4-(3-methylpyrazin-2-yl)phenoxy]furo[3,2-c]pyridine] | 1400 nM | 91.7 |  |
| c1cc(-c2ccc(Oc3nccc4occc34)cc2)n2ccnc2c1 [Example 197, 4-[4-(imidazo[1,2-a]pyridin-5-yl)phenoxy]furo[3,2-c]pyridine] | 801 nM and 1090 nM | 97 |  |
| Cc1cc(Oc2nccc3occc23)ccc1-c1cccc2cnn(C)c12 [Example 200, 4-[3-methyl-4-(1-methyl-1H-indazol-7-yl)phenoxy]furo[3,2-c]pyridine] | 1240 nM | 111 |  |

Continued by falling Ki (D1 [2]; [3]), values first:

| EC50 (D1 [1]) | Ki (D1 [2]; [3]) [nM] | Ki (D1 [2]; read-out: Human D1 Receptor Binding, Ki (nM), Geometric mean of 2-4 determinations, a: >=5 determinations, d: single determination) [nM] | Compound |
| --- | --- | --- | --- |
| 782 nM | 104 |  | CCc1noc(COc2cc(Oc3nccc4occc34)ccc2-c2nccnc2C)n1 [Example 199, 4-{3-[(3-ethyl-1,2,4-oxadiazol-5-yl)methoxy]-4-(3-methylpyrazin-2-yl)phenoxy}furo[3,2-c]pyridine, formate salt] |
| 1140 nM | 97 |  | Cc1cc(Oc2nccc3occc23)ccc1-c1c(C)ncnc1N1CCN(C)C(=O)C1 [Example 198, 4-{5-[4-(furo[3,2-c]pyridin-4-yloxy)-2-methylphenyl]-6-methylpyrimidin-4-yl}-1-methylpiperazin-2-one, formate salt] |
| 565 nM | 90.4 |  | OCCCOc1cc(Oc2nccc3occc23)ccc1-c1cccc2nccn12 [Example 195, 3-[5-(furo[3,2-c]pyridin-4-yloxy)-2-(imidazo[1,2-a]pyridin-5-yl)phenoxy]propan-1-ol, trifluoroacetate salt] |
| 1680 nM and 1330 nM | 88.5 |  | Cc1ncccc1-c1ccc(Oc2nccc3occc23)cc1OCCc1cnoc1 [Example 194, 4-{4-(2-methylpyridin-3-yl)-3-[2-(1,2-oxazol-4-yl)ethoxy]phenoxy}furo[3,2-c]pyridine, formate salt] |
| 737 nM and 1500 nM | 86.4 |  | CCOc1ncnc(C)c1-c1ccc(Oc2nccc3occc23)cc1F [Example 192, 4-[4-(4-ethoxy-6-methylpyrimidin-5-yl)-3-fluorophenoxy]furo[3,2-c]pyridine] |
| 1120 nM | 85.8 |  | COc1cc(Oc2nccc3occc23)ccc1-c1ccc(N)nc1C [Example 191, 5-[4-(furo[3,2-c]pyridin-4-yloxy)-2-methoxyphenyl]-6-methylpyridin-2-amine, formate salt] |
| 308 nM | 77.6 |  | Cc1cc(Oc2nccc3occc23)ccc1-c1cncc2nccn12 [Example 189, 5-[4-(furo[3,2-c]pyridin-4-yloxy)-2-methylphenyl]imidazo[1,2-a]pyrazine, trifluoroacetate salt] |
| 464 nM and 447 nM | 72.5 |  | Cc1nccnc1-c1ccc(Oc2nccc3occc23)cc1OCc1nc(C2CC2)no1 [Example 188, 4-{3-[(3-cyclopropyl-1,2,4-oxadiazol-5-yl)methoxy]-4-(3-methylpyrazin-2-yl)phenoxy}furo[3,2-c]pyridine, formate salt] |
| 984 nM | 65.7 |  | Cc1cc(Oc2nccc3occc23)ccc1-c1c(C)ncnc1N1CCCC1CO (stereo not shown) [Example 187, (1-{5-[4-(furo[3,2-c]pyridin-4-yloxy)-2-methylphenyl]-6-methylpyrimidin-4-yl}pyrrolidin-2-yl)methanol, trifluoroacetate salt] |
| 1400 nM | 62.4 |  | Cc1cc(Oc2nccc3occc23)ccc1-c1c(C)ncnc1N1Cc2cccnc2C1 [Example 183, 4-{4-[4-(5,7-dihydro-6H-pyrrolo[3,4-b]pyridin-6-yl)-6-methylpyrimidin-5-yl]-3-methylphenoxy}furo[3,2-c]pyridine, formate salt] |
| 2550 nM | 46.4 |  | Cc1cc(Oc2nccc3occc23)ccc1-c1nc(=O)[nH]nc1C [Example 177, 5-[4-(furo[3,2-c]pyridin-4-yloxy)-2-methylphenyl]-6-methyl-1,2,4-triazin-3(2H)-one] |
| 1160 nM | 46.4 |  | Cc1cc(Oc2nccc3occc23)ccc1-c1c(C)ncnc1N1CCCC1 [Example 178, 4-{3-methyl-4-[4-methyl-6-(pyrrolidin-1-yl)pyrimidin-5-yl]phenoxy}furo[3,2-c]pyridine, trifluoroacetate salt] |
| 780 nM | 44.2 |  | Cc1cc(Oc2nccc3occc23)ccc1-c1c(C)ccnc1C#N [Example 176, 3-[4-(furo[3,2-c]pyridin-4-yloxy)-2-methylphenyl]-4-methylpyridine-2-carbonitrile] |
| 564 nM | 36.8 |  | COc1cc(Oc2nccc3occc23)ccc1-c1c(C)ncc2nccn12 [Example 173, 5-[4-(furo[3,2-c]pyridin-4-yloxy)-2-methoxyphenyl]-6-methylimidazo[1,2-a]pyrazine] |
| 408 nM | 32.7 |  | Cc1ncc2nccn2c1-c1ccc(Oc2nccc3occc23)cc1 [Example 172, 5-[4-(furo[3,2-c]pyridin-4-yloxy)phenyl]-6-methylimidazo[1,2-a]pyrazine] |
| 657 nM | 30 |  | Clc1cc(Oc2nccc3occc23)ccc1-c1cncc2nccn12 [Example 170, 5-[2-chloro-4-(furo[3,2-c]pyridin-4-yloxy)phenyl]imidazo[1,2-a]pyrazine] |
| 354 nM | 24.4 |  | Cc1cc(Oc2nccc3occc23)ccc1-c1c(C)ncnc1N1CC=CC1 [Example 167, 4-{4-[4-(2,5-dihydro-1H-pyrrol-1-yl)-6-methylpyrimidin-5-yl]-3-methylphenoxy}furo[3,2-c]pyridine, trifluoroacetate salt] |
